Reference: ChEMBL document CHEMBL3507680, “University of Dundee, Gates Library screen for HepG2 cell viability”

Experiment: Human HepG2 cell viability assay in 384 well format
Assay type: toxicity, cell-based
Set-up: dose 125 nL, time 70.5 hour; cytotoxicity at 70.5 h: concentration not given beside the values
Settings: HepG2 cells, read-out: Inhibition

SMILES | cytotoxicity at 70.5 h
CN[C@@H](CO)C(=O)NCc1cc2n(n1)CCCN(C1CCCCC1)C2 | -6.96%
CC(C)(C)n1ccc(C(=O)N2CCCC(c3ncc[nH]3)C2)c1 (centres undefined) | -1.92%
Cc1ncsc1CN(Cc1ccccc1)Cc1ccncc1 | 8.23%
Cc1ccccc1CS(=O)(=O)NCCCN1CCCC1 | -2.2%
CCOc1ccccc1-n1c(C2CC(=O)N(C)C2)n[nH]c1=O (centres undefined) | -25.4%
CCn1ncnc1C(C)Nc1cc(C2CC2)ncn1 (centres undefined) | -13%
COc1cc(C(N)=O)c(N(C)S(C)(=O)=O)cc1OC | -9.06%
O=C(c1ccc(O)c(Cl)c1)N1C[C@@H](CN2CCCCCC2)[C@@H](CO)C1 | 3.21%
O=C1CCCCN1CCc1nc(-c2cccnn2)no1 | -2.5%
Cc1c(C(=O)N2CCC(N3CCCCC3)CC2)n(C)c2ccc(Cl)cc12 | -0.949%
Cc1ccc(C)c(OC(C)C(=O)Nc2cccnc2)c1 (centres undefined) | -3.32%
Cc1ncsc1CCNC(=O)Cn1nc(C)n(Cc2ccccc2)c1=O | -2.97%
CSCc1noc(Cn2ccc3ccccc3c2=O)n1 | -10.8%
CC(C)Cc1ncc2c(n1)CN(c1nc3ccccc3cc1CO)C2 | -14.3%
c1ccc(CN2CCC(NCCSc3cnn[nH]3)C2)cc1 (centres undefined) | -3.66%
COc1ccc(NC2CCCN(Cc3cnc(N(C)C)s3)C2)cc1 (centres undefined) | -6.11%
COc1cccc(-c2cc(C(=O)NCCn3nc(C)nc3C)[nH]n2)c1 | -7.22%
O=C(Cc1nc(-c2ccncc2)n[nH]1)N1CCOCC1 | -14.8%
CC(C)CN1CCc2[nH]cnc2C12CCN(C(=O)c1cnn(C)c1)CC2 | -7.51%
COCCN(Cc1ccccc1C)c1nc(C)nc2oc(C)nc12 | 0.842%
Cc1ccc(CN2CCN(c3nc4c(s3)c(C)nn4C)C(C)C2=O)cc1 (centres undefined) | 31.2%
Cc1cc(-c2cncnc2)ccc1OCC(N)=O | 13.6%
CCOc1ccc(C(=O)NC2CC2)cc1C | -7.46%

SMILES | cytotoxicity at 70.5 h
COCCCNC(=O)Cc1nc(-c2ccncc2)n[nH]1 | -1.85%
COCCN1CCCC2(CCN(c3ncnc(C)c3C)C2)C1=O (centres undefined) | 15.5%
CCNC(=O)c1cc(OC)c(OC)cc1N(C)S(C)(=O)=O | -8.66%
COc1ccc(F)c(-c2cc(NCCO)nc(N)n2)c1 | -3.97%
CC(=O)N[C@@H]1CN(C(=O)c2cc3ccccc3[nH]2)C[C@H]1c1ccc(C)o1 | -9.58%
Cc1ccccc1N1CCCN(C(=O)CC2CN(C(C)C)CCO2)CC1 (centres undefined) | 0.214%
COc1cccc2c1OCC(C(=O)N1CCC(NS(C)(=O)=O)CC1)C2 (centres undefined) | -7.91%
COc1ccccc1[C@@H]1CN(CC(=O)N2CCCCC2)C[C@H]1C(=O)O | -7.8%
O=C(c1cnn2cc(CCO)cnc12)N1CCOC(C(F)(F)F)C1 (centres undefined) | -13%
CCNc1ncc(C(=O)NCCc2csc(CSC)n2)cn1 | -4.44%
O=C(Nc1ccccc1)N1C[C@H]2CC[C@@H]1CN(Cc1ccccc1)C2 | -4.8%
Cc1cc(N2CCN(C(=O)C(C)n3ccnc3C(C)C)CC2)cc(C)n1 (centres undefined) | -4.34%
CCc1ncc(C(=O)N2CCCC(c3nccn3CCOC)C2)cn1 (centres undefined) | -0.318%
COC(=O)N1CCCCC1C(=O)N1CCN(c2cccnc2)CC1 (centres undefined) | 6.34%
OCc1csc(N2CCN(Cc3cccc(F)c3)CC2)n1 | 22.2%
CCNc1ncc(CN2C[C@@H](C(=O)O)[C@H](C3CC3)C2)cn1 | -7.25%
CCn1c(CN2CCCC2)nnc1C1CCN(S(=O)(=O)CC)CC1 | -2.53%
CC1Oc2ccc(S(=O)(=O)NCCCn3ccnc3)cc2NC1=O (centres undefined) | -3.81%
CNS(=O)(=O)c1ccsc1C(=O)OC | -5.92%
CNC(=O)C1CC(=O)N(c2cccc(F)c2)C1 (centres undefined) | -3.04%
CS(=O)(=O)N1CCC(c2nnc(Cn3ccnc3)n2C2CC2)CC1 | -3.52%
CCCN(CCOC)c1nc(C)nc2sccc12 | 13.4%
COc1ccc(OC)c(C2CCN(C(=O)[C@H]3CC[C@@H](O)CC3)C2)c1 (some centres undefined) | -9.68%

SMILES | cytotoxicity at 70.5 h
CCOc1cccc(C(C(=O)O)N(C)Cc2cc(C)no2)c1 (centres undefined) | -9.85%
O=C(Cc1n[nH]c(-c2cncc(Br)c2)n1)NCc1cccnc1 | -9.48%
CN(C)C[C@@H]1CN(C(=O)c2cc(F)ccc2F)C[C@@H]1CO | -5.47%
CN1CCC2(CC1)CN(C(=O)c1onc3ccccc13)CCCN2C | 26.8%
CCNC(=O)[C@@H]1C[C@H](N)CN1C(=O)CCc1ccccc1Cl | -4.67%
CN(C)CC1(O)CCN(C(=O)Cc2ccc(Cl)c(Cl)c2)C1 (centres undefined) | 10.5%
CCN(Cc1ccoc1)Cc1nc(COC)no1 | -7.42%
Cc1ccccc1CSc1nc(N)cc(N2CCCC(O)C2)n1 (centres undefined) | 0.482%
O=S(=O)(Nc1ccc2c(c1)OCCO2)N1CCCCC1 | -0.954%
C[C@@H]1CN(C(=O)C2(N3CCCCC3)Cc3ccccc3C2)C[C@H](C)O1 | -9%
O=C1[C@@H]2CN(Cc3cc4ccccc4o3)C[C@]2(C(=O)O)CN1CC1CC1 | -4.85%
Cc1nnc2sc(-c3cc(C(C)C)n[nH]3)nn12 | -4.97%
O=C(O)c1ccc(CC2CCN(S(=O)(=O)N3CCOCC3)C2)cc1 (centres undefined) | -5.44%
Cc1ccc(NC(=O)c2coc(C)n2)c(C)c1 | -6.55%
c1ccc2sc(N3CCC4(CCCN4Cc4ncc[nH]4)CC3)nc2c1 | -7.49%
CCNc1cc(N2CCN(C(=O)c3ccc(OC)cc3)CC2)nc(C)n1 | -2.56%
CNc1ccnc(NCCC(=O)Nc2ccccc2C)n1 | -4.65%
Cc1ncc(CN2CCC(CNS(=O)(=O)C3CC3)C2)cn1 (centres undefined) | 13.4%
O=C1COc2ccc(C(=O)NS(=O)(=O)c3ccccc3Cl)cc2N1 | -14.9%
O=C1COc2ccc(C(=O)NS(=O)(=O)c3ccccc3F)cc2N1 | -8.64%
CCN(CC1CCOC1)C(=O)c1ccccc1S(=O)(=O)CC (centres undefined) | 10.2%
Cc1nn(C)c(C)c1CCC(=O)N1CCCC(n2cccn2)C1 (centres undefined) | 21.7%
Cn1ccnc1CN1CCCN(C(=O)c2ccc3[nH]cnc3c2)CC1 | -8.02%

SMILES | cytotoxicity at 70.5 h
NC(=O)C1CCN(C(=O)NCc2ccc(-c3ccn[nH]3)cc2)CC1 | -6.11%
CC(=O)c1ccc(N2CCN(C(=O)NCc3cc[nH]n3)CC2)cc1 | -2.83%
CC(C)(C)c1ncc(C(=O)NCCNC(=O)Cc2ccccc2)s1 | -5.68%
CC(C)(C)c1ncc(C(=O)NCCNC(=O)c2cccs2)s1 | 12.5%
COc1c(CNC2CCC(O)CC2)c(C(C)C)nn1C (centres undefined) | -5.04%
COc1c(CNC2CCN(C(=O)C(C)C)CC2)c(C(C)C)nn1C | 19.1%
O=C(NCc1cc[nH]n1)N1CCN(c2ncccn2)CC1 | -8.57%
Cc1ncc2c(n1)CN(CC(=O)Nc1cccnc1)CC2 | 17.5%
Cc1ccc(F)cc1NS(=O)(=O)c1cc2c(c(C(=O)O)c1)OCCO2 | -5.92%
Cc1ccc(C)c(NS(=O)(=O)c2cc3c(c(C(=O)O)c2)OCCO3)c1 | -8.38%
O=C(O)c1cc(S(=O)(=O)Nc2cccc(F)c2F)cc2c1OCCO2 | -0.966%
Cc1cc(C(=O)N2CCCN(Cc3nccn3C)CC2)no1 | 12.6%
Cc1noc(C)c1CCC(=O)N1CCCC(n2cccn2)C1 (centres undefined) | -0.943%
CNC(=O)c1ccc(C(=O)N2CCCC(n3ccnc3C)C2)cn1 (centres undefined) | -3.51%
CC(C)CN1CC(C(=O)NCCOc2ccc3c(c2)OCO3)CC1=O (centres undefined) | 3.51%
O=S1(=O)CCC(N(Cc2nc3ccccc3o2)Cc2cccs2)C1 (centres undefined) | 19.2%
CSc1nccn1-c1cccc(C(=O)NCCC(=O)NC(C)C)c1 | -3.09%
Cc1noc(C)c1CN(Cc1cccs1)C1CCS(=O)(=O)C1 (centres undefined) | 15.7%
O=C(CCCOc1ccc(F)cc1F)N1CCCC(n2cccn2)C1 (centres undefined) | -3.24%
Cc1cnn(CC2CN(c3ccc(C#N)cn3)CCO2)c1 (centres undefined) | 23.6%
NC(=O)NCC1CCCCN1C(=O)c1cccc(Cl)c1 (centres undefined) | -4.19%
O=C(CCCc1ccccc1)N1CCC(Nc2cccnn2)CC1 | -4.29%
Cc1ccc(CCC(=O)N2CCC(Nc3cccnn3)CC2)cc1 | 1.83%

SMILES | cytotoxicity at 70.5 h
Cc1nccn1C1CCCN(C(=O)c2ccc3cc[nH]c3c2)C1 (centres undefined) | -1.7%
CCn1cc(NC(=O)C2CCN(CC(=O)NC(C)(C)CC)CC2)cn1 | -2.19%
Cc1nccn1C1CCCN(C(=O)c2ccc3c(c2)OCCCO3)C1 (centres undefined) | -0.919%
Cc1ccc(NC2CCN(C(=O)Cc3cccs3)CC2)nn1 | 2.71%
CN(CC(=O)NC1CCOCC1)C1CCCN(c2cccnn2)C1 (centres undefined) | -2.74%
Cc1cc(C)n(C2CCCN(C(=O)c3ccc(N(C)C)nc3)C2)n1 (centres undefined) | -2.57%
Cc1noc(Cl)c1CCC(=O)N1CCC(Nc2cccnn2)CC1 | -0.162%
CCCc1n[nH]c(C2CN(C(=O)c3cccc4[nH]ncc34)CCO2)n1 (centres undefined) | -3.81%
O=C(c1csc(-c2nnc[nH]2)n1)N1CCCCC1Cn1cccn1 (centres undefined) | 1.45%
O=S1(=O)CCC(N(Cc2nc(-c3ccccn3)no2)Cc2cccs2)C1 (centres undefined) | -4.77%
O=C(c1cc(-c2cccs2)on1)N1CCCCC1Cn1cccn1 (centres undefined) | -8.41%
Cc1ccc(NC2CCN(C(=O)CCCc3cccs3)CC2)nn1 | -2.88%
Cc1oc(-c2cccs2)nc1C(=O)N1CCCC1Cn1cccn1 (centres undefined) | -6.8%
CCCc1n[nH]c(C2CN(C(=O)c3cncnc3C)CCO2)n1 (centres undefined) | 3.13%
CCc1nc2n(n1)CC(NCc1nc(Cc3ccccc3)no1)CC2 (centres undefined) | 25.4%
Cc1noc(CN(Cc2cccs2)C2CCS(=O)(=O)C2)n1 (centres undefined) | -3.18%
O=C(CCOc1cccc(F)c1)N1CCCC1Cn1cccn1 (centres undefined) | -0.422%
O=C(CCCOc1ccccc1)N1CCCC1Cn1cccn1 (centres undefined) | -3.8%
Cc1cn2c(n1)CCC(NC(=O)CCCn1cncn1)C2 (centres undefined) | 15.9%
CCc1cnc(CN(C(C)=O)C2CCN(CCc3ccccc3)C2)o1 (centres undefined) | 18.3%
CCc1nnc2n1CCN(C(=O)CN(C)C1CC1)C2 | -0.0438%
CNS(=O)(=O)c1ccc(C(=O)N2CCCCC2c2ccc(C)cc2)o1 (centres undefined) | -2.53%
